# Results from ChEMBL document CHEMBL6109067, “Isolation, synthesis and structure-activity relationships of gallotannin derivatives as cathepsin C inhibitor” (Bioorg Med Chem Lett, 2025).
# Columns and labels:
# Dipeptidyl peptidase 1 = Dipeptidyl peptidase 1 (Homo sapiens, UniProt P53634); experiment: Inhibition of Cathepsin C (unknown origin)
# Procathepsin L = Procathepsin L (Homo sapiens, UniProt P07711); experiment: Inhibition of Cathepsin L (unknown origin)
# Cathepsin S = Cathepsin S (Homo sapiens, UniProt P25774); experiment: Inhibition of Cathepsin S (unknown origin)
# Cathepsin K = molecular target: T1, Cathepsin K (Homo sapiens, UniProt P43235); experiment: Inhibition of Cathepsin K (unknown origin)
# T1 sequence (P43235 whole entry): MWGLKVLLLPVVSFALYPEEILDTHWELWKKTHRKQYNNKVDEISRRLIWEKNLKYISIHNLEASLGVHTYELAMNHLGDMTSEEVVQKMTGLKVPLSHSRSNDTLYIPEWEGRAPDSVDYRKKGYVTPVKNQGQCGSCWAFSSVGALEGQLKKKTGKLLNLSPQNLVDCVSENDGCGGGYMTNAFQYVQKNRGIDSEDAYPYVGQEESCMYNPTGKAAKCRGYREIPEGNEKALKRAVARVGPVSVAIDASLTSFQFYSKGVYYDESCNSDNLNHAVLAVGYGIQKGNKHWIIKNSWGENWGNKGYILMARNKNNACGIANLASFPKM
# Chain of Cathepsin S (P25774 whole entry): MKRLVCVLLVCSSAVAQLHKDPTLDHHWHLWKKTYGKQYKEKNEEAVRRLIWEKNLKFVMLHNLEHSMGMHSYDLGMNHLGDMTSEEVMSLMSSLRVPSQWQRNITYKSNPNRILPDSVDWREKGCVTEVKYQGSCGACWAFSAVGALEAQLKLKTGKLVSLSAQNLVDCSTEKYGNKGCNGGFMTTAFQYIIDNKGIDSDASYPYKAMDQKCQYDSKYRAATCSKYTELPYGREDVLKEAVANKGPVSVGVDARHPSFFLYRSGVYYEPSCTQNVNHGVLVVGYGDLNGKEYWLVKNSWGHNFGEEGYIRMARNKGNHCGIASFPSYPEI
# Chain of Procathepsin L (P07711 whole entry): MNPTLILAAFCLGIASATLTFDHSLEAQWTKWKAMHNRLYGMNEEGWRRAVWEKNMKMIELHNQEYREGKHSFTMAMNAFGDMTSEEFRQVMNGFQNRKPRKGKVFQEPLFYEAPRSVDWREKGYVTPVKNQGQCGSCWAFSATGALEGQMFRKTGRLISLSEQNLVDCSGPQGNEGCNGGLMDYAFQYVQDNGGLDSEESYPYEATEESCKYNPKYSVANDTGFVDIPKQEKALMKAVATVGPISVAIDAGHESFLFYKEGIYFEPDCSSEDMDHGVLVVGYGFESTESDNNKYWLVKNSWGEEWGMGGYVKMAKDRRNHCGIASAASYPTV
# Chain of Dipeptidyl peptidase 1 (P53634 25-134 limits assumed): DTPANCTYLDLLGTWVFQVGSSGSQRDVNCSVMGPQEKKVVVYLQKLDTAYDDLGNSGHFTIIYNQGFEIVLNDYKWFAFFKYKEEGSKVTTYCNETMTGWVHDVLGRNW
# Chain of Dipeptidyl peptidase 1 (P53634 231-394 limits assumed): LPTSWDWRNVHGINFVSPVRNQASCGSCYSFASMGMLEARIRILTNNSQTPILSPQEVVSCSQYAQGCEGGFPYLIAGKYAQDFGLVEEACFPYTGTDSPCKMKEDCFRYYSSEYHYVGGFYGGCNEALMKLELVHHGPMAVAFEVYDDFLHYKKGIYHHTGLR
# Chain of Dipeptidyl peptidase 1 (P53634 395-463 limits assumed): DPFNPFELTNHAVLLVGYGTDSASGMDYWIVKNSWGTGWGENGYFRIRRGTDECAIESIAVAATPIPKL
smiles,measurement,setting,value
O=C(OC[C@H]1O[C@H](OC(=O)c2cc(O)c(O)c(O)c2)[C@H](OC(=O)c2cc(O)c(O)c(O)c2)[C@@H](OC(=O)c2cc(O)c(O)c(O)c2)[C@H]1OC(=O)c1cc(O)c(O)c(O)c1)c1cc(O)c(O)c(O)c1,IC50,Dipeptidyl peptidase 1,2.52 µM
CC(C)C[C@H](NC(=O)[C@H]1O[C@@H]1C(=O)O)C(=O)NCCCCN=C(N)N [E-64],IC50,Dipeptidyl peptidase 1,4.45 µM
same,IC50,Procathepsin L,0.00749 µM
same,IC50,Cathepsin S,0.00358 µM
same,IC50,Cathepsin K,0.00117 µM
O=C(OC[C@H]1O[C@@H](OC(=O)c2cc(O)c(O)c(O)c2)[C@H](OC(=O)c2cc(O)c(O)c(O)c2)[C@@H](OC(=O)c2cc(O)c(O)c(O)c2)[C@H]1OC(=O)c1cc(O)c(O)c(O)c1)c1cc(O)c(O)c(O)c1,IC50,Dipeptidyl peptidase 1,0.735 µM
O=C(OC[C@H]1O[C@@H](OC(=O)c2cc(O)c(O)c(O)c2)[C@H](OC(=O)c2cc(O)c(O)c(O)c2)[C@@H](OC(=O)c2cc(O)c(O)c(O)c2)[C@@H]1O)c1cc(O)c(O)c(O)c1,IC50,Procathepsin L,> 50 µM
same,IC50,Cathepsin S,> 50 µM
same,IC50,Cathepsin K,> 50 µM
O=C(OC[C@H]1O[C@H](OC(=O)c2cc(O)c(O)c(O)c2)[C@H](OC(=O)c2cc(O)c(O)c(O)c2)[C@@H](OC(=O)c2cc(O)c(O)c(O)c2)[C@@H]1OC(=O)c1cc(O)c(O)c(O)c1)c1cc(O)c(O)c(O)c1,IC50,Dipeptidyl peptidase 1,1.99 µM
COc1cc(C(=O)O[C@@H]2O[C@H](CO)[C@@H](O)[C@H](OC(=O)c3cc(OC)c(OC)c(OC)c3)[C@H]2OC(=O)c2cc(OC)c(OC)c(OC)c2)cc(OC)c1OC,IC50,Dipeptidyl peptidase 1,> 10 µM
same,pIC50,Dipeptidyl peptidase 1,< 5
O=C(OC[C@H]1O[C@@H](OC(=O)c2cc(O)c(O)c(O)c2)[C@H](OC(=O)c2cc(O)c(O)c(O)c2)[C@@H](OC(=O)c2cc(O)c(O)c(O)c2)[C@@H]1OC(=O)c1cc(O)c(O)c(O)c1)c1cc(O)c(O)c(O)c1 [PENTAGALLOYL GLUCOSE],IC50,Dipeptidyl peptidase 1,0.695 µM
O=C(N[C@H]1[C@@H](OC(=O)c2cc(O)c(O)c(O)c2)O[C@H](COC(=O)c2cc(O)c(O)c(O)c2)[C@@H](O)[C@@H]1OC(=O)c1cc(O)c(O)c(O)c1)c1cc(O)c(O)c(O)c1,IC50,Dipeptidyl peptidase 1,> 10 µM
same,pIC50,Dipeptidyl peptidase 1,< 5
O=C(OC[C@H]1O[C@@H](OC(=O)c2cc(O)c(O)c(O)c2)[C@H](OC(=O)c2cc(O)c(O)c(O)c2)[C@@H](OC(=O)c2cc(O)c(O)c(O)c2)[C@@H]1F)c1cc(O)c(O)c(O)c1,IC50,Procathepsin L,7.23 µM
same,IC50,Cathepsin S,> 50 µM
same,IC50,Cathepsin K,> 50 µM
